{"source": "patent US11685746B2", "about": "“Heteroaryl compounds for treating Huntington's disease” (PTC THERAPEUTICS, INC., priority 2018, dated 2023)", "test_system": "Endogenous Huntingtin Protein", "test": "Endogenous Huntingtin Protein Assay (MSD plates, MW1 or MAB2166 capture antibody)", "assay_type": "cell-based", "conditions": "Table 1", "method": "Endogenous Huntingtin Protein Assay\nMeso Scale Discovery (MSD) 96-well or 384-well plates were coated overnight at 4° C. with MW1 (expanded polyglutamine) or MAB2166 monoclonal antibody (for capture) at a concentration of 1 μg/mL in PBS (30 μL per well). Plates were then washed three times with 300 μL wash buffer (0.05% Tween-20 in PBS) and blocked (100 μL blocking buffer; 5% BSA in PBS) for 4-5 hours at room temperature with rotational shaking and then washed three times with wash buffer.\nSamples (25 μL) were transferred to the antibody-coated MSD plate and incubated overnight at 4° C. After removal of the lysates, the plate was washed three times with wash buffer, and 25 μL of #5656S (Cell signaling; rabbit monoclonal) secondary antibody (diluted to 0.25 μg/mL in 0.05% Tween-20 in blocking buffer) was added to each well and incubated with shaking for 1 Hour at room temperature. Following incubation with the secondary antibody, the wells were rinsed with wash buffer after which 25 μL of goat anti-rabbit SULFO TAG secondary detection antibody (required aspect of the MSD system) (diluted to 0.25 μg/mL in 0.05% Tween-20 in blocking buffer) was added to each well and incubated with shaking for 1 hour at room temperature. After rinsing three times with wash buffer, 150 μL of read buffer T with surfactant (MSD) were added to each empty well, and the plate was imaged on a SI 6000 imager (MSD) according to manufacturers' instructions provided for 96- or 384-well plates.", "data": [{"smiles": "Cc1cn2nc(-c3cn4cc(C5CCNCC5)nc4s3)cc(C)c2n1", "note": "[Compound 8, 2,8-dimethyl-6-[6-(piperidin-4-yl)imidazo[2,1-b][1,3]thiazol-2-yl]imidazo[1,2-b]pyridazine]", "values": [{"measurement": "IC50", "value": "≤ 0.1", "unit": "µM"}]}, {"smiles": "CN(c1nc2sc(-c3ccc(-c4cn[nH]c4)cc3)nc2s1)[C@@H]1C[C@H]2CC[C@@H](C1)N2", "note": "[Compound 141, N-[(1R,3s,5S)-8-azabicyclo[3.2.1]octan-3-yl]-N-methyl-5-[4-(1H-pyrazol-4-yl)phenyl][1,3]thiazolo[5,4-d][1,3]thiazol-2-amine]", "values": [{"measurement": "IC50", "value": "≤ 0.1", "unit": "µM"}]}, {"smiles": "CC1CC(N(C)c2nc3sc(-c4cnc(-c5cn[nH]c5)nc4)nc3s2)CCN1C", "note": "(centres unmarked) [Compound 130, N-(1,2-dimethylpiperidin-4-yl)-N-methyl-5-[2-(1H-pyrazol-4-yl)pyrimidin-5-yl][1,3]thiazolo[5,4-d][1,3]thiazol-2-amine]", "values": [{"measurement": "IC50", "value": "1 to 3", "unit": "µM"}]}, {"smiles": "CN(c1nc2sc(-c3nccc4cc[nH]c34)nc2s1)[C@@H]1C[C@H]2CC[C@@H](C1)N2", "note": "[Compound 160, N-[(1R,3s,5S)-8-azabicyclo[3.2.1]octan-3-yl]-N-methyl-5-(1H-pyrrolo[2,3-c]pyridin-7-yl)[1,3]thiazolo[5,4-d][1,3]thiazol-2-amine]", "values": [{"measurement": "IC50", "value": "0.1 to 0.5", "unit": "µM"}]}, {"smiles": "CN(c1nc2sc(-c3cnc(-c4cn[nH]c4)nc3)nc2s1)[C@@H]1C[C@H]2CC[C@@H](C1)N2", "note": "[Compound 175, N-[(1R,3s,5S)-8-azabicyclo[3.2.1]octan-3-yl]-N-methyl-5-[2-(1H-pyrazol-4-yl)pyrimidin-5-yl][1,3]thiazolo[5,4-d][1,3]thiazol-2-amine]", "values": [{"measurement": "IC50", "value": "≤ 0.1", "unit": "µM"}]}, {"smiles": "CN(c1nc2sc(-c3ncc(-c4cn[nH]c4)c4[nH]cnc34)nc2s1)C1CC(C)(C)NC(C)(C)C1", "note": "[Compound 136, N-methyl-5-[7-(1H-pyrazol-4-yl)-1H-imidazo[4,5-c]pyridin-4-yl]-N-(2,2,6,6-tetramethylpiperidin-4-yl)[1,3]thiazolo[5,4-d][1,3]thiazol-2-amine]", "values": [{"measurement": "IC50", "value": "≤ 0.1", "unit": "µM"}]}, {"smiles": "CN(c1nc2sc(-c3ccc(-c4cn[nH]c4)cc3O)nc2s1)[C@@H]1CCNC1", "note": "[Compound 55, 2-(5-{methyl[(3R)-pyrrolidin-3-yl]amino}[1,3]thiazolo[5,4-d][1,3]thiazol-2-yl)-5-(1H-pyrazol-4-yl)phenol]", "values": [{"measurement": "IC50", "value": "≤ 0.1", "unit": "µM"}]}, {"smiles": "CN(c1nc2sc(-c3cnc(-c4cn[nH]c4)cn3)nc2s1)[C@H]1C[C@]2(C)CC[C@](C)(C1)N2", "note": "[Compound 142, N-[(1R,3s,5S)-1,5-dimethyl-8-azabicyclo[3.2.1]octan-3-yl]-N-methyl-5-[5-(1H-pyrazol-4-yl)pyrazin-2-yl][1,3]thiazolo[5,4-d][1,3]thiazol-2-amine]", "values": [{"measurement": "IC50", "value": "≤ 0.1", "unit": "µM"}]}, {"smiles": "CN(c1nc2sc(-c3cc(F)c(-c4cn[nH]c4)cc3F)nc2s1)C1CCNCC1", "note": "[Compound 20, 5-[2,5-difluoro-4-(1H-pyrazol-4-yl)phenyl]-N-methyl-N-(piperidin-4-yl)[1,3]thiazolo[5,4-d][1,3]thiazol-2-amine]", "values": [{"measurement": "IC50", "value": "0.1 to 0.5", "unit": "µM"}]}, {"smiles": "Cn1cc2cc(-c3nc4sc(C5CCNCC5)nc4s3)cc(F)c2n1", "note": "[Compound 11, 7-fluoro-2-methyl-5-[5-(piperidin-4-yl)[1,3]thiazolo[5,4-d][1,3]thiazol-2-yl]-2H-indazole]", "values": [{"measurement": "IC50", "value": "≤ 0.1", "unit": "µM"}]}, {"smiles": "Cn1cc2cc(-c3nn4cc(C5CCNCC5)nc4s3)cc(F)c2n1", "note": "[Compound 28, 7-fluoro-2-methyl-5-[6-(piperidin-4-yl)imidazo[2,1-b][1,3,4]thiadiazol-2-yl]-2H-indazole]", "values": [{"measurement": "IC50", "value": "≤ 0.1", "unit": "µM"}]}, {"smiles": "CN(c1nc2sc(-c3ncc(-c4cn[nH]c4)cc3O)nc2s1)C1CCN2CCCC2C1", "note": "(centres unmarked) [Compound 145, 2-{5-[methyl(octahydroindolizin-7-yl)amino][1,3]thiazolo[5,4-d][1,3]thiazol-2-yl}-5-(1H-pyrazol-4-yl)pyridin-3-ol]", "values": [{"measurement": "IC50", "value": "≤ 0.1", "unit": "µM"}]}, {"smiles": "CN(c1nc2sc(-n3ccc(-c4cn[nH]c4)cc3=O)nc2s1)C1CCNCC1", "note": "[Compound 188, 1-{5-[methyl(piperidin-4-yl)amino][1,3]thiazolo[5,4-d][1,3]thiazol-2-yl}-4-(1H-pyrazol-4-yl)pyridin-2(1H)-one]", "values": [{"measurement": "IC50", "value": "≤ 0.1", "unit": "µM"}]}, {"smiles": "CN1CCC2(CC1)CN(c1nc3sc(-c4ncc(-c5cn[nH]c5)cc4O)nc3s1)C2", "note": "[Compound 196, 2-[5-(7-methyl-2,7-diazaspiro[3.5]nonan-2-yl)[1,3]thiazolo[5,4-d][1,3]thiazol-2-yl]-5-(1H-pyrazol-4-yl)pyridin-3-ol]", "values": [{"measurement": "IC50", "value": "≤ 0.1", "unit": "µM"}]}, {"smiles": "CN(c1nn2cc(-c3ccc(-c4cn[nH]c4)cc3O)nc2s1)C1CC2CCC(C1)N2", "note": "(stereo not drawn) [Compound 18, 2-{2-[(3-exo)-8-azabicyclo[3.2.1]oct-3-yl(methyl)amino]imidazo[2,1-b][1,3,4]thiadiazol-6-yl}-5-(1H-pyrazol-4-yl)phenol]", "values": [{"measurement": "IC50", "value": "0.1 to 0.5", "unit": "µM"}]}, {"smiles": "CN(c1nc2sc(-c3ccc(-c4ccn(C)c(=O)c4)cc3O)nc2s1)C1CC(C)(C)NC(C)(C)C1", "note": "[Compound 46]", "values": [{"measurement": "IC50", "value": "≤ 0.1", "unit": "µM"}]}, {"smiles": "CC1CC(N(C)c2nc3sc(-c4ccc(-c5cn[nH]c5)c5cn[nH]c45)nc3s2)CCN1C", "note": "(centres unmarked) [Compound 108, N-(1,2-dimethylpiperidin-4-yl)-N-methyl-5-[4-(1H-pyrazol-4-yl)-1H-indazol-7-yl][1,3]thiazolo[5,4-d][1,3]thiazol-2-amine]", "values": [{"measurement": "IC50", "value": "≤ 0.1", "unit": "µM"}]}, {"smiles": "Cc1ncc(-c2cnc(-c3nc4sc(N(C)[C@@H]5C[C@H]6CC[C@@H](C5)N6)nc4s3)c(O)c2)s1", "note": "[Compound 199, 2-(5-{[(1R,3s,5S)-8-azabicyclo[3.2.1]octan-3-yl](methyl)amino}[1,3]thiazolo[5,4-d][1,3]thiazol-2-yl)-5-(2-methyl-1,3-thiazol-5-yl)pyridin-3-ol]", "values": [{"measurement": "IC50", "value": "≤ 0.1", "unit": "µM"}]}, {"smiles": "Cn1ccc(-c2ccc(-c3nc4sc(OC5CC(C)(C)NC(C)(C)C5)nc4s3)c(O)c2)cc1=O", "note": "[Compound 38, 4-(3-hydroxy-4-{5-[(2,2,6,6-tetramethylpiperidin-4-yl)oxy][1,3]thiazolo[5,4-d][1,3]thiazol-2-yl}phenyl)-1-methylpyridin-2(1H)-one]", "values": [{"measurement": "IC50", "value": "0.1 to 0.5", "unit": "µM"}]}, {"smiles": "COc1cc(-c2cnc(-c3nc4sc(N(C)[C@H]5C[C@]6(C)CC[C@](C)(C5)N6)nc4s3)cn2)ncn1", "note": "[Compound 65, N-[(1R,3s,5S)-1,5-dimethyl-8-azabicyclo[3.2.1]octan-3-yl]-5-[5-(6-methoxypyrimidin-4-yl)pyrazin-2-yl]-N-methyl[1,3]thiazolo[5,4-d][1,3]thiazol-2-amine]", "values": [{"measurement": "IC50", "value": "0.1 to 0.5", "unit": "µM"}]}, {"smiles": "CN(c1nc2sc(-c3ncc(-c4cn[nH]c4)c4cc[nH]c34)nc2s1)C1CCN2CCCC2C1", "note": "(centres unmarked) [Compound 123, N-methyl-N-{5-[4-(1H-pyrazol-4-yl)-1H-pyrrolo[2,3-c]pyridin-7-yl][1,3]thiazolo[5,4-d][1,3]thiazol-2-yl}octahydroindolizin-7-amine]", "values": [{"measurement": "IC50", "value": "≤ 0.1", "unit": "µM"}]}, {"smiles": "CN(c1nc2sc(-n3ccc(-c4cn[nH]c4)cc3=O)nc2s1)[C@@H]1C[C@H]2CC[C@@H](C1)N2", "note": "[Compound 195, 1-(5-{[(1R,3s,5S)-8-azabicyclo[3.2.1]octan-3-yl](methyl)amino}[1,3]thiazolo[5,4-d][1,3]thiazol-2-yl)-4-(1H-pyrazol-4-yl)pyridin-2(1H)-one]", "values": [{"measurement": "IC50", "value": "≤ 0.1", "unit": "µM"}]}, {"smiles": "C[C@@H]1C[C@@H](Oc2nc3sc(-c4ncc(-c5cn[nH]c5)c5nc[nH]c45)nc3s2)CCN1", "note": "[Compound 83, 4-(5-{[(2R,4S)-2-methylpiperidin-4-yl]oxy}[1,3]thiazolo[5,4-d][1,3]thiazol-2-yl)-7-(1H-pyrazol-4-yl)-3H-imidazo[4,5-c]pyridine]", "values": [{"measurement": "IC50", "value": "≤ 0.1", "unit": "µM"}]}, {"smiles": "C[C@@H]1C[C@@H](Oc2nc3sc(-c4ccc(-c5cn[nH]c5)c5cn[nH]c45)nc3s2)CCN1", "note": "[Compound 78, 7-(5-{[(2R,4S)-2-methylpiperidin-4-yl]oxy}[1,3]thiazolo[5,4-d][1,3]thiazol-2-yl)-4-(1H-pyrazol-4-yl)-1H-indazole]", "values": [{"measurement": "IC50", "value": "≤ 0.1", "unit": "µM"}]}, {"smiles": "CN(c1nc2sc(-c3ccc(-c4cn[nH]c4)cc3O)nc2s1)C1CCNCC1", "note": "[Compound 14, 2-{5-[methyl(piperidin-4-yl)amino][1,3]thiazolo[5,4-d][1,3]thiazol-2-yl}-5-(1H-pyrazol-4-yl)phenol]", "values": [{"measurement": "IC50", "value": "≤ 0.1", "unit": "µM"}]}, {"smiles": "CN(c1nc2sc(-c3ccc(-c4cn[nH]c4)c(F)c3F)nc2s1)C1CC(C)(C)NC(C)(C)C1", "note": "[Compound 3, 5-[2,3-difluoro-4-(1H-pyrazol-4-yl)phenyl]-N-methyl-N-(2,2,6,6-tetramethylpiperidin-4-yl)[1,3]thiazolo[5,4-d][1,3]thiazol-2-amine]", "values": [{"measurement": "IC50", "value": "0.1 to 0.5", "unit": "µM"}]}, {"smiles": "Cc1ncc(-c2cnc(-c3nc4sc(N(C)C5CCNCC5)nc4s3)c(O)c2)s1", "note": "[Compound 222, 2-{5-[methyl(piperidin-4-yl)amino][1,3]thiazolo[5,4-d][1,3]thiazol-2-yl}-5-(2-methyl-1,3-thiazol-5-yl)pyridin-3-ol]", "values": [{"measurement": "IC50", "value": "≤ 0.1", "unit": "µM"}]}, {"smiles": "CN(c1nc2sc(-c3ncc(Br)cn3)nc2s1)[C@@H]1C[C@H]2CC[C@@H](C1)N2", "note": "[Compound 186, N-[(1R,3s,5S)-8-azabicyclo[3.2.1]octan-3-yl]-5-(5-bromopyrimidin-2-yl)-N-methyl[1,3]thiazolo[5,4-d][1,3]thiazol-2-amine]", "values": [{"measurement": "IC50", "value": "≤ 0.1", "unit": "µM"}]}, {"smiles": "Cc1cc(-c2cnc(-c3nc4sc(N(C)C5CCNCC5)nc4s3)c(O)c2)cnn1", "note": "[Compound 224, 2-{5-[methyl(piperidin-4-yl)amino][1,3]thiazolo[5,4-d][1,3]thiazol-2-yl}-5-(6-methylpyridazin-4-yl)pyridin-3-ol]", "values": [{"measurement": "IC50", "value": "≤ 0.1", "unit": "µM"}]}]}
